Literature values as cited in patent US20110081780A1, “AQUEOUS DISPERSION FOR CHEMICAL MECHANICAL POLISHING AND CHEMICAL MECHANICAL POLISHING METHOD” (JSR CORPORATION, priority 2008, published 2011).

Details: 25° C.; second carboxyl group if two carboxyl groups, third if three or more

| pKa | Compound |
| --- | --- |
| 6.18 | O=C(O)[C@@H]1CCCCC[C@H]1C(=O)O (relative stereo) [1,2-Cycloheptanedicarboxylic acid (trans)] |
| 6.24 | O=C(O)[C@@H]1CCCCCC[C@H]1C(=O)O (relative stereo) [1,2-Cyclooctanedicarboxylic acid (trans)] |
| 7.60 | O=C(O)[C@H]1CCCCC[C@H]1C(=O)O [1,2-Cycloheptanedicarboxylic acid (cis)] |
| 7.34 | O=C(O)[C@H]1CCCCCC[C@H]1C(=O)O [1,2-Cyclooctanedicarboxylic acid (cis)] |
| 7.42 | CCC(CC)(C(=O)O)C(=O)O [2,2-Diethylmalonic acid] |
| 8.85 | CC(C)C(C(=O)O)(C(=O)O)C(C)C [2,2-Diisopropylmalonic acid] |
| 10.26 | CC(C)(C)C(C(=O)O)C(C(=O)O)C(C)(C)C (stereo not drawn) [2,3-Di-t-butylsuccinic acid] |
| 6.46 | CCC(C(=O)O)C(CC)C(=O)O (stereo not drawn) [2,3-Diethylsuccinic acid] |
| 6.00 | CC(C(=O)O)C(C)C(=O)O (stereo not drawn) [2,3-Dimethylsuccinic acid] |
| 7.31 | CCC(CC)C(CC)(CCC(=O)O)C(=O)O (stereo not drawn) [2-Ethyl-2-(1-ethylpropyl)glutaric acid] |
| 6.55 | CCC(C)(C(=O)O)C(=O)O [2-Ethyl-2-methylmalonic acid] |
| 6.10 | CCC(C(=O)O)C(C)C(=O)O (stereo not drawn) [2-Ethyl-3-methylsuccinic acid] |
| 5.81 | CCC(C(=O)O)C(=O)O [2-Ethylmalonic acid] |
| 5.88 | CC(C)C(C(=O)O)C(=O)O [2-Isopropylmalonic acid] |
| 6.89 | CC1CCCCC1(CC(=O)O)CC(=O)O (stereo not drawn) [2-Methylcyclohexyl-1,1-diacetic acid] |
| 7.42 | CCC(CC)(CC(=O)O)CC(=O)O [3,3-Diethylglutaric acid] |
| 7.68 | CC(C)C(CC(=O)O)(CC(=O)O)C(C)C [3,3-Diisopropylglutaric acid] |
| 6.45 | CC(C)(CC(=O)O)CC(=O)O [3,3-Dimethylglutaric acid] |
| 7.48 | CCCC(CCC)(CC(=O)O)CC(=O)O [3,3-Dipropylglutaric acid] |
| 6.95 | CCC(CC(=O)O)(CC(=O)O)c1ccccc1 [3-Ethyl-3-phenylglutaric acid] |
| 6.92 | CC(C)C(C)(CC(=O)O)CC(=O)O [3-Isopropyl-3-methylglutaric acid] |
| 6.70 | CCC(C)(CC(=O)O)CC(=O)O [3-Methyl-3-ethylglutaric acid] |
| 6.17 | CC(CC(=O)O)(CC(=O)O)c1ccccc1 [3-Methyl-3-phenylglutaric acid] |
| 7.49 | CC(C)(C)C(C)(CC(=O)O)CC(=O)O [3-t-Butyl-3-methylglutaric acid] |
| 7.08 | O=C(O)CC1(CC(=O)O)CCCCC1 [Cyclohexyl-1,1-diacetic acid] |
| 6.77 | O=C(O)CC1(CC(=O)O)CCCC1 [Cyclopentyl-1,1-diacetic acid] |
| 5.55 | O=C(O)CC(C(=O)O)c1ccccc1 (stereo not drawn) [Phenylsuccinic acid] |
| 7.41 | CC(C)(C(=O)O)C(C)(C)C(=O)O [Tetramethylsuccinic acid] |
| 9.96 | O=C(O)c1cccc(O)c1 [m-Hydroxvbenzoic acid] |
| 9.46 | O=C(O)c1ccc(O)cc1 [p-Hydroxybenzoic acid] |

| Compound | pKa |
| --- | --- |
| CC(C(=O)O)C(=O)O [2-Methylmalonic acid] | 5.76 |

Details: commercially available products

| HLB value | Compound |
| --- | --- |
| 13 | 2,4,7,9-tetramethyl-5-decyne-4,7-diol-dipolyoxyethylene ethers [Surfynol 465] |
| 17 | 2,4,7,9-tetramethyl-5-decyne-4,7-diol-dipolyoxyethylene ethers [Surfynol 485] |
